# Test results: US20210386367A1, “DEVICES AND SYSTEMS FOR GASTROINTESTINAL MICROBIOME DETECTION AND MANIPULATION” (Progenity, Inc., priority 2018, published 2021)
# Read-outs that look alike come from different tables or passages of the source.
# Key:
# Klebsiella spp. = assay: Broth microdilution MIC, 50 clinical isolates (20 K. oxytoca, 30 K. pneumoniae); assay type: cell-based
# Description: Minimal inhibitory concentration (MIC) values were determined by broth microdilution or agar dilution in accordance with guidelines from the Clinical and Laboratory Standards Institute (CLSI; (1) “Methods for Dilution Antimicrobial Susceptibility Tests for Bacteria That Grow Aerobically; Approved Standard; 11th ed.” CLSI standard M07-A11, 2018; (2) “Performance Standards for Antimicrobial Susceptibility Testing; Twenty-Eighth Informational Supplement,” CLSI document M100-S28, 2018; and (3) “Methods for Antimicrobial Susceptibility Testing of Anaerobic Bacteria; Approved Standard—Eighth Edition,” CLSI document M11-A8, 2012).
# Tested aerobically by broth microdilution: • Escherichia coli, n=50 • Klebsiella spp., n=50 • Pseudomonas aeruginosa, n=50 • Streptococcus spp., n=50 • Staphylococcus aureus, n=50 • Enterococcus faecalis, n=50 • Enterobacter aerogenes, n=50 • Proteus mirabilis, n=50
# Broth microdilution testing of aerobic bacteria was conducted in cation-adjusted Mueller Hinton broth (MHBII). For testing streptococci, lysed horse blood (LHB) was added to MHBII broth at a final concentration of 3%. Where LHB was used, it was added after filtering.
# Broth microdilution susceptibility testing in 96-well microplates was conducted in accordance with CLSI methods (1) and (2). Automated liquid handlers were used to conduct serial dilutions and liquid transfers, including the Multidrop 384 (Labsystems, Helsinki, Finland), Biomek 2000, and the Biomek FX (Beckman Coulter, Fullerton, Calif.). All wells in columns 2 through 12 of a standard 96-well microdilution plate (Costar 3795) were filled with 150 μL of the appropriate diluent. Then, 300 μL of the test agents were added to the wells of column 1 of the plates at 100× the highest final concentration to be tested. Serial two-fold dilutions were made across the rows through column 11 using the Biomek 2000. The wells of column 12 contained no drug and served as the growth control wells. This plate served as the “mother plate” from which MIC assay plates or “daughter plates” were made.
# The daughter plates were loaded with 190 μL per well of the appropriate medium using the Multidrop 384. The daughter plates were created using the Biomek FX which transferred 2 μL of drug solution from each well of a mother plate to each corresponding well of the daughter plate in a single step. A standardized inoculum of each test organism was prepared per CLSI methods (1) to equal a 0.5 McFarland standard, followed by a dilution of 1:20 for aerobes and 1:10 for anaerobes. The plates were then inoculated with 10 μL of the diluted inoculum using the Biomek 2000 from low to high drug concentration, resulting in a final concentration of approximately 5×10^5 CFU/mL per well. An un-inoculated plate was incubated in parallel for each medium for the purpose of assessing solubility of the drug in the test media.
# Inoculated plates were stacked 3 or 4 high, covered with a sterile lid on the top plate, placed into boxes with CO2 planchets (streptococci) or plastic bags (all other isolates). Plates were incubated at 35° C. for 16-24 hr in ambient air for aerobes or for 42-48 hr in the anaerobic environment of the Bactron II anaerobe chamber (Sheldon Manufacturing Co.; Cornelius, Oreg.). Following incubation, the microplates were removed from the incubator and viewed from the bottom using a plate viewer. The MIC values were read and recorded as the lowest concentration of drug that inhibited visible growth of the organism as per CLSI methods (1) and (2).
# E. coli ATCC 25922 = assay: Broth microdilution MIC (time-kill study); assay type: cell-based, Escherichia coli; conditions: E. coli ATCC 25922
# B. vulgatus ATCC 8482 = assay: Broth microdilution MIC (time-kill study); assay type: cell-based, Bacteroides vulgatus; conditions: B. vulgatus ATCC 8482
# [1] = system: Bacteroides spp. spontaneous mutants; assay: Broth microdilution MIC of spontaneous mutants; assay type: cell-based
# Description: Select isolates were subcultured onto agar containing drug at the selection concentration, were identified by MALDI, and were frozen for broth microdilution MIC testing as described below.
# To determine whether colonies growing on drug selection plates had elevated MIC values to the selecting antibiotic, susceptibility testing by broth microdilution was conducted on isolated mutants following methodology recommended by CLSI (1), (2), and (3) “Performance Standards for Antimicrobial Susceptibility Testing; Twenty-Eighth Informational Supplement.,” CLSI document M100-S28, 2018.
# All wells in columns 2 through 12 of a standard 96-well microdilution plate (Costar 3795) were filled with 150 μL of the appropriate diluent. Then, 300 μL of the test agents were added to the wells of column 1 of the plates at […] the highest final concentration to be tested. Serial two-fold dilutions were made across the rows through column 11 using the Biomek 2000. The wells of column 12 contained no drug and served as the growth control wells. This plate served as the “mother plate” from which selected MIC assay plates or “daughter plates” were made.
# Daughter plates for anaerobic organisms were transferred to a Bactron II anaerobic chamber (Sheldon Manufacturing Inc., Cornelius, Oreg.) to reduce for 1 hour prior to inoculation. The inoculum for each organism was prepared in the anaerobic chamber and dispensed into sterile disposable reservoirs. Inoculation was completed using a multichannel pipette to transfer 10 μL of the inoculum into each well of the daughter plate. This yielded a final cell concentration in the daughter plates of approximately 1×10^6 CFU/mL.
compound,measurement,setting,value
COc1c(N2C[C@@H]3CCCN[C@@H]3C2)c(F)cc2c(=O)c(C(=O)O)cn(C3CC3)c12 [moxifloxacin],MIC range,Klebsiella spp.,0.015 to 128 µg/mL
same,Mode,Klebsiella spp.,0.06 µg/mL
same,Cumulative percentage of isolates at MIC,Klebsiella spp.; 0.015 μg/mL,2.0%
same,Number of test isolates at MIC,Klebsiella spp.; 0.015 μg/mL,1
same,Cumulative percentage of isolates at MIC,Klebsiella spp.; 0.03 μg/mL,8.0%
same,Number of test isolates at MIC,Klebsiella spp.; 0.03 μg/mL,3
same,Cumulative percentage of isolates at MIC,Klebsiella spp.; 0.06 μg/mL,56.0%
same,Number of test isolates at MIC,Klebsiella spp.; 0.06 μg/mL,24
same,Cumulative percentage of isolates at MIC,Klebsiella spp.; 0.5 μg/mL,77.0%
same,Number of test isolates at MIC,Klebsiella spp.; 0.5 μg/mL,2
same,Cumulative percentage of isolates at MIC,Klebsiella spp.; 1 μg/mL,74.0%
same,Number of test isolates at MIC,Klebsiella spp.; 1 μg/mL,1
same,Cumulative percentage of isolates at MIC,Klebsiella spp.; 2 μg/mL,80.0%
same,Number of test isolates at MIC,Klebsiella spp.; 2 μg/mL,3
same,Cumulative percentage of isolates at MIC,Klebsiella spp.; 4 μg/mL,84.0%
same,Number of test isolates at MIC,Klebsiella spp.; 4 μg/mL,2
same,Cumulative percentage of isolates at MIC,Klebsiella spp.; 16 μg/mL,88.0%
same,Number of test isolates at MIC,Klebsiella spp.; 16 μg/mL,2
same,Cumulative percentage of isolates at MIC,Klebsiella spp.; 32 μg/mL,94.0%
same,Number of test isolates at MIC,Klebsiella spp.; 32 μg/mL,3
same,Cumulative percentage of isolates at MIC,Klebsiella spp.; 64 μg/mL,96.0%
same,Number of test isolates at MIC,Klebsiella spp.; 64 μg/mL,1
same,Cumulative percentage of isolates at MIC,Klebsiella spp.; 128 μg/mL,100.0%
same,Number of test isolates at MIC,Klebsiella spp.; 128 μg/mL,2
same,MIC50,"Klebsiella spp.; Klebsiella, read-out: MIC50",0.06 µg/mL
same,MIC90,"Klebsiella spp.; Klebsiella, read-out: MIC90",32 µg/mL
piperacillin/tazobactam [piperacillin-tazobactam],MIC,E. coli ATCC 25922,4/4
same,% I,Klebsiella spp.,2%
same,% R,Klebsiella spp.,24%
same,% S,Klebsiella spp.,74%
same,MIC50,Klebsiella spp.,4 µg/mL
same,MIC90,Klebsiella spp.,>128 µg/mL
same,Mode,Klebsiella spp.,2 µg/mL
same,Cumulative percentage of isolates at MIC,Klebsiella spp.; 0.5 μg/mL,4.0%
same,Number of test isolates at MIC,Klebsiella spp.; 0.5 μg/mL,2.
same,Cumulative percentage of isolates at MIC,Klebsiella spp.; 1 μg/mL,14.0%
same,Number of test isolates at MIC,Klebsiella spp.; 1 μg/mL,5
same,Cumulative percentage of isolates at MIC,Klebsiella spp.; 2 μg/mL,48.0%
same,Number of test isolates at MIC,Klebsiella spp.; 2 μg/mL,17
same,Cumulative percentage of isolates at MIC,Klebsiella spp.; 4 μg/mL,58.0%
same,Number of test isolates at MIC,Klebsiella spp.; 4 μg/mL,5
same,Cumulative percentage of isolates at MIC,Klebsiella spp.; 8 μg/mL,68.0%
same,Number of test isolates at MIC,Klebsiella spp.; 8 μg/mL,5
same,Cumulative percentage of isolates at MIC,Klebsiella spp.; 16 μg/mL,74.0%
same,Number of test isolates at MIC,Klebsiella spp.; 16 μg/mL,3
same,Cumulative percentage of isolates at MIC,Klebsiella spp.; 64 μg/mL,76.0%
same,Number of test isolates at MIC,Klebsiella spp.; 64 μg/mL,1
same,Cumulative percentage of isolates at MIC,Klebsiella spp.; 128 μg/mL,78.0%
same,Number of test isolates at MIC,Klebsiella spp.; 128 μg/mL,1
same,Cumulative percentage of isolates at MIC,Klebsiella spp.; >128 μg/mL,100.0%
same,Number of test isolates at MIC,Klebsiella spp.; >128 μg/mL,11
same,MIC,B. vulgatus ATCC 8482,4 µg/mL
Cc1ncc([N+](=O)[O-])n1CCO [MTZ],MIC,"[1]; B. fragilis ATCC 25285, selected on rifaximin 4X MIC, Colony A",0.25 µg/mL
same,MIC,"[1]; B. fragilis ATCC 25285, selected on rifaximin 4X MIC, Colony B",0.5 µg/mL
same,MIC,"[1]; B. fragilis ATCC 25285, selected on rifaximin 8X MIC, Colony A",0.5 µg/mL
same,MIC,"[1]; B. fragilis ATCC 25285, selected on rifaximin 8X MIC, Colony B",0.25 µg/mL
same,MIC,[1]; B. fragilis ATCC 25285 Parent,0.25 µg/mL
same,MIC,"[1]; B. ovatus MMX 3503, selected on rifaximin 4X MIC, Colony A",2 µg/mL
same,MIC,"[1]; B. ovatus MMX 3503, selected on rifaximin 4X MIC, Colony B",0.5 µg/mL
same,MIC,"[1]; B. ovatus MMX 3503, selected on rifaximin 8X MIC, Colony A",1 µg/mL
same,MIC,"[1]; B. ovatus MMX 3503, selected on rifaximin 8X MIC, Colony B",2 µg/mL
same,MIC,[1]; B. ovatus MMX 3503 Parent,0.5 µg/mL
same,MIC,"[1]; B. vulgatus ATCC 8482, selected on ceftriaxone 4X MIC, Colony A",1 µg/mL
same,MIC,"[1]; B. vulgatus ATCC 8482, selected on ceftriaxone 4X MIC, Colony B",1 µg/mL
same,MIC,"[1]; B. vulgatus ATCC 8482, selected on rifaximin 4X MIC, Colony A",1 µg/mL
same,MIC,"[1]; B. vulgatus ATCC 8482, selected on rifaximin 4X MIC, Colony B",1 µg/mL
same,MIC,"[1]; B. vulgatus ATCC 8482, selected on rifaximin 8X MIC, Colony A",1 µg/mL
same,MIC,"[1]; B. vulgatus ATCC 8482, selected on rifaximin 8X MIC, Colony B",1 µg/mL
same,MIC,[1]; B. vulgatus ATCC 8482 Parent (Table 50),1 µg/mL
same,MIC,[1]; B. vulgatus ATCC 8482 Parent (Table 54),1 µg/mL
"CN[C@H](CC(C)C)C(=O)N[C@H]1C(=O)N[C@@H](CC(N)=O)C(=O)N[C@H]2C(=O)N[C@H]3C(=O)N[C@H](C(=O)N[C@H](C(=O)O)c4cc(O)cc(O)c4-c4cc3ccc4O)[C@H](O)c3ccc(c(Cl)c3)Oc3cc2cc(c3O[C@@H]2O[C@H](CO)[C@@H](O)[C@H](O)[C@H]2O[C@H]2C[C@](C)(N)[C@H](O)[C@H](C)O2)Oc2ccc(cc2Cl)[C@H]1O [vancomycin, Vancomycin]",MIC,"E. coli ATCC 25922; Escherichia coli, ATCC25922, read-out: MIC",> 16 µg/mL
same,MIC,"B. vulgatus ATCC 8482; Phocaeicola vulgatus, ATCC8482, read-out: MIC",> 16 µg/mL
